Test results taken from the supplement of paper PMC10307832.

How the values were obtained:
Assay in all cases: relative viability (nuclei count vs DMSO), 5 days (fraction); higher = more cells survive
[1] = compound: Cc1ccc2nc(NCCN)c3ncc(C)n3c2c1 + Cc1nc(Nc2ncc(C(=O)Nc3c(C)cccc3Cl)s2)cc(N2CCN(CCO)CC2)n1 [Dasatinib] (partner 0.075 µM)
Procedure, shortened: (§1)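 Medians of duplicate plates are given as relative viability. That measure is the nuclei count in treated wells divided by the count in vehicle wells. Counts were taken on 4× images of lung cancer cell lines in 1536-well plates, 5 days after pin-tool dosing the day after seeding with one drug alone or a fixed anchor-drug dose plus five library-drug doses (not always all listed) in √10 steps.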

Salubrinal + Trametinib = compound: O=C(/C=C/c1ccccc1)NC(NC(=S)Nc1cccc2cccnc12)C(Cl)(Cl)Cl [Salubrinal] + CC(=O)Nc1cccc(-n2c(=O)n(C3CC3)c(=O)c3c(Nc4ccc(I)cc4F)n(C)c(=O)c(C)c32)c1 [Trametinib] (partner 0.02 µM)
Procedure, shortened: as §1

[2] = compound: Cc1ccc2nc(NCCN)c3ncc(C)n3c2c1 + CC(C)C[C@H](NC(=O)[C@H](Cc1ccccc1)NC(=O)c1cnccn1)B(O)O [Bortezomib] (partner 0.002 µM)
Procedure, shortened: as §1

Salubrinal + Foretinib = compound: O=C(/C=C/c1ccccc1)NC(NC(=S)Nc1cccc2cccnc12)C(Cl)(Cl)Cl [Salubrinal] + COc1cc2c(Oc3ccc(NC(=O)C4(C(=O)Nc5ccc(F)cc5)CC4)cc3F)ccnc2cc1OCCCN1CCOCC1 [Foretinib] (partner 0.25 µM)
Procedure, shortened: as §1

Cell Line | relative viability ([1]; first compound 0.04 µM) | relative viability ([1]; first compound 0.1265 µM) | relative viability ([1]; first compound 0.4 µM) | relative viability ([1]; first compound 1.265 µM) | relative viability ([1]; first compound 4 µM) | relative viability (Salubrinal + Trametinib; first compound 0.08 µM) | relative viability (Salubrinal + Trametinib; first compound 0.253 µM) | relative viability (Salubrinal + Trametinib; first compound 0.8 µM) | relative viability (Salubrinal + Trametinib; first compound 2.53 µM) | relative viability (Salubrinal + Trametinib; first compound 8 µM) | relative viability ([2]; first compound 0.04 µM) | relative viability ([2]; first compound 0.1265 µM) | relative viability ([2]; first compound 0.4 µM) | relative viability ([2]; first compound 1.265 µM) | relative viability ([2]; first compound 4 µM) | relative viability (Salubrinal + Foretinib; first compound 0.08 µM) | relative viability (Salubrinal + Foretinib; first compound 0.253 µM) | relative viability (Salubrinal + Foretinib; first compound 0.8 µM) | relative viability (Salubrinal + Foretinib; first compound 2.53 µM) | relative viability (Salubrinal + Foretinib; first compound 8 µM)
NCI-H23 | 0.934 | 0.798 | 0.73 | 0.779 | 0.728 | 0.437 | 0.423 | 0.479 | 0.334 | 0.375 | 1.12 | 1.03 | 1.08 | 1.02 | 0.672 | 1.13 | 0.999 | 1.08 | 0.894 | 0.959
201T | 0.56 | 0.501 | 0.587 | 0.524 | 0.483 | 0.741 | 0.726 | 0.788 | 0.728 | 0.716 | 1.11 | 1.2 | 1.09 | 1.11 | 1.11 | 1.36 | – | 1.17 | 1.04 | 1.12
NCI-H460 | 0.448 | 0.546 | 0.613 | 0.499 | 0.468 | 0.114 | 0.24 | 0.125 | 0.121 | 0.126 | 1.05 | 1.02 | 1.08 | 1.08 | 1.01 | 1.15 | 0.987 | 0.975 | 1.09 | 0.914
NCI-H661 | 0.927 | 0.943 | 0.88 | 0.835 | 0.748 | 0.781 | 0.523 | 0.574 | 0.577 | 0.546 | 0.909 | 0.868 | 0.595 | – | 0.651 | 0.996 | 1.06 | 1.05 | 0.991 | 1.02
HCC-15 | 0.703 | 0.666 | 0.646 | 0.575 | 0.391 | 0.444 | 0.36 | 0.379 | 0.378 | 0.381 | 1.02 | 1 | 0.864 | 0.975 | 0.783 | 1.21 | 0.999 | 1.07 | 1.08 | 1.06
LCLC-103H | 0.584 | 0.495 | 0.421 | 0.562 | 0.442 | 0.737 | 0.682 | 0.691 | 0.738 | 0.673 | 1.15 | 1.23 | 0.944 | 1.2 | 1.04 | 0.849 | 0.687 | 0.818 | 0.768 | 0.817
NCI-H441 | 0.556 | 0.552 | 0.551 | 0.673 | 0.445 | 0.48 | 0.415 | 0.48 | 0.507 | 0.462 | 0.72 | 0.463 | 0.423 | 0.533 | 0.438 | 1.24 | 0.917 | 1.03 | 0.947 | 0.862
EPLC-272H | 0.414 | 0.411 | 0.489 | 0.406 | 0.382 | 0.305 | 0.298 | 0.298 | 0.314 | 0.298 | 0.914 | 0.782 | 0.911 | 0.805 | 0.97 | 0.853 | 0.655 | 0.65 | 0.64 | 0.519
